According to ChEMBL document CHEMBL2086293, “Diaminopyridine-based potent and selective mps1 kinase inhibitors binding to an unusual flipped-Peptide conformation” (ACS Med Chem Lett, 2012):

Assays:
[1] = biological target: Mitogen-activated protein kinase 8 (Homo sapiens, UniProt P45983); experiment: Inhibition of JNK1-mediated ATF2 phosphorylation after 1 hr by ELISA
A549 [2] = experiment: Antiproliferative activity against human A549 cells after 72 hrs by WST8 assay; assay type: functional, cell-based; settings: A549, 72 h
[3] = biological target: Receptor-type tyrosine-protein kinase FLT3 (Homo sapiens) (UniProt P36888); experiment: Inhibition of FLT3 at 1 uM
[4] = tested on: T1, Receptor-type tyrosine-protein kinase FLT3 (Homo sapiens), P36888 [D835Y]; experiment: Inhibition of FLT3 D835Y mutant at 1 uM
T1 sequence (whole entry): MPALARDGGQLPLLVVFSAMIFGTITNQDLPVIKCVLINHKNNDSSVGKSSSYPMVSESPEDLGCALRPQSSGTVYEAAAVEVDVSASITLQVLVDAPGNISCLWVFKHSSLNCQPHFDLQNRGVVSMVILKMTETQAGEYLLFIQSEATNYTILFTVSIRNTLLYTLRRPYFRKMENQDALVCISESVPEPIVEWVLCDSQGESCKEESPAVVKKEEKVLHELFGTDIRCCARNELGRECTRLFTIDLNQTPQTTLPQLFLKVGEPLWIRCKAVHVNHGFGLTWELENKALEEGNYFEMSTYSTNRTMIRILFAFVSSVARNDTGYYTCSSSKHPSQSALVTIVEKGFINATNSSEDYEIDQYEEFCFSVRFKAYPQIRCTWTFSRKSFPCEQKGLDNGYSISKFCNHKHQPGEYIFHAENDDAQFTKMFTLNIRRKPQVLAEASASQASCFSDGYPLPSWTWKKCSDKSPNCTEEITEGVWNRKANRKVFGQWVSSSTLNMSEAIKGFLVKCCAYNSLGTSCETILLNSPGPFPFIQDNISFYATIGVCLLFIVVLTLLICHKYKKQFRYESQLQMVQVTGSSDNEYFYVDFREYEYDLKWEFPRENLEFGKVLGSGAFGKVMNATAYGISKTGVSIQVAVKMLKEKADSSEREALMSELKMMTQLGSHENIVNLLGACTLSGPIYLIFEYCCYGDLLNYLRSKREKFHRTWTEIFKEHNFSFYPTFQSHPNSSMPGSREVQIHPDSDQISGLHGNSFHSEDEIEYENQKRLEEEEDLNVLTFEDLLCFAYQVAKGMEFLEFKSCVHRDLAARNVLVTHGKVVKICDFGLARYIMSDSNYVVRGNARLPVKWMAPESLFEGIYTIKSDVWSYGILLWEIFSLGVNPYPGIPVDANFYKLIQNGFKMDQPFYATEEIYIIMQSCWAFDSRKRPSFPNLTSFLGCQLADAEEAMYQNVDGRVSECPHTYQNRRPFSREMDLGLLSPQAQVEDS

[5] = Cmax in mouse at 25 mg/kg, po; assay type: ADME, organism-based; parameters: dose 25 mg/kg, route oral; settings: in vivo
[6] = Tmax in mouse at 25 mg/kg, po; assay type: ADME, organism-based; parameters: dose 25 mg/kg, route oral; settings: in vivo
[7] = AUC in mouse at 25 mg/kg, po; assay type: ADME, organism-based; parameters: dose 25 mg/kg, route oral; settings: plasma
A549 [8] = experiment: Antitumor activity against human A549 cells xenografted in po dosed BALB/cA Jcl-nu/nu mouse assessed as tumor growth inhibition administered QD for 19 days; assay type: functional, organism-based
A549 [9] = experiment: Antitumor activity against human A549 cells xenografted in BALB/cA Jcl-nu/nu mouse assessed as tumor growth inhibition at 100 mg/kg, po administered QD for 19 days relative to vehicle-treated control; settings: 456 h, read-out: TGI
Mus musculus = experiment: Toxicity in BALB/cA Jcl-nu/nu mouse xenografted with human A549 cells assessed as body weight loss at 100 mg/kg, po administered QD for 19 days; assay type: organism-based; parameters: dose 100 mg/kg, route oral; settings: in vivo, 456 h

Mitogen-activated protein kinase 8, sequence (P45983 whole entry): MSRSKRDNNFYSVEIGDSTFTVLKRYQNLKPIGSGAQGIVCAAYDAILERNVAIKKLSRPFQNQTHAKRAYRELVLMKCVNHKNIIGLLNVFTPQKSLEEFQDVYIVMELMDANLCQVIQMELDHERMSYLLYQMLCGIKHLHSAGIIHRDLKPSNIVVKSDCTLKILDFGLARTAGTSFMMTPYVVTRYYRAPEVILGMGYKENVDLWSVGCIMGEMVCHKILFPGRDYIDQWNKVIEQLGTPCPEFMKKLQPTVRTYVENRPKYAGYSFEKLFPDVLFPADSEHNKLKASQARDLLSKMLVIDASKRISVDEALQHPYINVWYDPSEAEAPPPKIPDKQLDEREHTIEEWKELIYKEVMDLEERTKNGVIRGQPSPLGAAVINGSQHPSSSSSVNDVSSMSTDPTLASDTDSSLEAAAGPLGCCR

Compound | IC50 [1] | IC50 (A549 [2]) | other results
CCOc1nc(NCCc2ccccc2)cc(N)c1C#N | > 100000 nM | – | –
CCOc1nc(Nc2ccccc2)cc(N)c1C#N | 1040 nM | – | –
CCOc1nc(NC(=O)Cc2ccccc2)cc(N)c1C#N | 260 nM | – | –
CCOc1nc(Nc2ccc(C(N)=O)cc2)cc(N)c1C#N | 190 nM | 9500 nM | –
CCOc1nc(C(=O)NCc2ccccc2)cc(N)c1C#N | 350 nM | – | –
CC(C)(C)Nc1nc(Nc2ccc(C(N)=O)cc2)cc(N)c1C#N | 231 nM | 840 nM | inhibition [3]: 50%; inhibition [4]: 86%; Cmax [5]: 3540 ng/mL; Tmax [6]: 15 min; AUC [7]: 6600 ng·h/mL; TGI (A549 [8]): Dose-dependent effect; inhibition in vivo at 100 mg/kg (A549 [9]): 47%; Activity (Mus musculus): Non-toxic
